From PubChem BioAssay (NCI)
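Five compound concentrations were applied to cells in 96-well plates for 48 hours; endpoints were derived by simple linear interpolation of the resulting dose-response curve. The concentration for full growth arrest is given as TGI.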

Tests used:
Test in all cases: DTP human tumour cell line panel, 48 h
[1] = tested on: 786-0 renal
[2] = tested on: A498 renal
[3] = tested on: A549 NSCLC
[4] = tested on: ACHN renal
[5] = tested on: BT-549 breast
[6] = tested on: CAKI-1 renal
[7] = tested on: CCRF-CEM leukemia
[8] = tested on: COLO 205 colon
[9] = tested on: DU-145 prostate
[10] = tested on: EKVX NSCLC
[11] = tested on: HCC-2998 colon
[12] = tested on: HCT-116 colon
[13] = tested on: HCT-15 colon
[14] = tested on: HL-60(TB) leukemia
[15] = tested on: HOP-62 NSCLC
[16] = tested on: HOP-92 NSCLC
[17] = tested on: HT29 colon
[18] = tested on: IGROV1 ovarian
[19] = tested on: K-562 leukemia
[20] = tested on: KM12 colon
[21] = tested on: LOX IMVI melanoma
[22] = tested on: M14 melanoma
[23] = tested on: MALME-3M melanoma
[24] = tested on: MCF7 breast
[25] = tested on: MDA-MB-231 breast
[26] = tested on: MDA-MB-435
[27] = tested on: MDA-N
[28] = tested on: MOLT-4 leukemia
[29] = tested on: NCI-H226 lung
[30] = tested on: NCI-H23 lung
[31] = tested on: NCI-H460 lung
[32] = tested on: NCI-H522 lung
[33] = tested on: NCI/ADR-RES ovarian
[34] = tested on: OVCAR-3 ovarian
[35] = tested on: OVCAR-4 ovarian
[36] = tested on: OVCAR-5 ovarian
[37] = tested on: OVCAR-8 ovarian
[38] = tested on: PC-3 prostate
[39] = tested on: RPMI-8226 leukemia
[40] = tested on: RXF 393 renal
[41] = tested on: SF-268 CNS
[42] = tested on: SF-295 CNS
[43] = tested on: SF-539 CNS
[44] = tested on: SK-MEL-2 melanoma
[45] = tested on: SK-MEL-28 melanoma
[46] = tested on: SK-MEL-5 melanoma
[47] = tested on: SK-OV-3 ovarian
[48] = tested on: SN12C renal
[49] = tested on: SNB-19 CNS
[50] = tested on: SNB-75 CNS
[51] = tested on: SR leukemia
[52] = tested on: SW-620 colon
[53] = tested on: T-47D breast
[54] = tested on: TK-10 renal
[55] = tested on: U251 CNS
[56] = tested on: UACC-257 melanoma
[57] = tested on: UACC-62 melanoma
[58] = tested on: UO-31 renal

Which TGI [1] does the source give for `CC(C)Oc1cc2c(cc1O)CC[C@@H]1[C@@H]2CC[C@]2(C)[C@@H](O)CC[C@@H]12` here?
The TGI was 36.1 µM.

And the TGI [2]?
The TGI was 26.9 µM.

And the TGI [3]?
Its TGI is 65.9 µM.

And the TGI [4]?
Its TGI is greater than 84.7 µM.

And the TGI [5]?
Its TGI is 52.7 µM.

What about the TGI [6] of the same compound?
Its TGI is greater than 20 µM.

And the TGI [7]?
The TGI was greater than 39.8 µM.

And the TGI [8]?
The TGI was 40.7 µM.

And the TGI [9]?
The TGI was 59.7 µM.

What about the TGI [10] of the same compound?
Its TGI is greater than 62 µM.

What about the TGI [11] of the same compound?
The TGI was 20.9 µM.

What about the TGI [12] of the same compound?
The TGI was 14.7 µM.

And the TGI [13]?
The TGI was 19.1 µM.

And the TGI [14]?
The TGI was greater than 38.1 µM.

What about the TGI [15] of the same compound?
The TGI was 18.1 µM.

What about the TGI [16] of the same compound?
The TGI was 33.5 µM.

What about the TGI [17] of the same compound?
Its TGI is 23 µM.

And the TGI [18]?
Its TGI is 42.9 µM.

What about the TGI [19] of the same compound?
The TGI was 30.8 µM.

And the TGI [20]?
Its TGI is 16.5 µM.

What about the TGI [21] of the same compound?
Its TGI is 18.3 µM.

And the TGI [22]?
Its TGI is 18.4 µM.

What about the TGI [23] of the same compound?
Its TGI is 27.3 µM.

What about the TGI [24] of the same compound?
The TGI was 30.3 µM.

And the TGI [25]?
The TGI was 26.6 µM.

And the TGI [26]?
The TGI was 10.9 µM.

What about the TGI [27] of the same compound?
The TGI was 3.6 µM.

And the TGI [28]?
The TGI was 30.2 µM.

And the TGI [29]?
Its TGI is 18.4 µM.

And the TGI [30]?
The TGI was 37.4 µM.

And the TGI [31]?
Its TGI is 14.4 µM.

What about the TGI [32] of the same compound?
Its TGI is 6.75 µM.

What about the TGI [33] of the same compound?
The TGI was 19.9 µM.

And the TGI [34]?
Its TGI is 12 µM.

What about the TGI [35] of the same compound?
Its TGI is 61.1 µM.

What about the TGI [36] of the same compound?
The TGI was 60.7 µM.

What about the TGI [37] of the same compound?
The TGI was 60.6 µM.

And the TGI [38]?
Its TGI is greater than 67.4 µM.

And the TGI [39]?
Its TGI is 35.7 µM.

And the TGI [40]?
Its TGI is 17.2 µM.

What about the TGI [41] of the same compound?
The TGI was 51.7 µM.

What about the TGI [42] of the same compound?
The TGI was 11.8 µM.

And the TGI [43]?
Its TGI is 6.93 µM.

And the TGI [44]?
The TGI was greater than 24.8 µM.

What about the TGI [45] of the same compound?
Its TGI is 56.6 µM.

What about the TGI [46] of the same compound?
The TGI was 12.8 µM.

What about the TGI [47] of the same compound?
Its TGI is 48.3 µM.

What about the TGI [48] of the same compound?
Its TGI is 29.1 µM.

What about the TGI [49] of the same compound?
The TGI was 31.8 µM.

And the TGI [50]?
Its TGI is 53.1 µM.

What about the TGI [51] of the same compound?
Its TGI is 27.8 µM.

And the TGI [52]?
Its TGI is 27.2 µM.

What about the TGI [53] of the same compound?
Its TGI is 35.7 µM.

What about the TGI [54] of the same compound?
The TGI was 54.6 µM.

And the TGI [55]?
The TGI was 24.4 µM.

What about the TGI [56] of the same compound?
Its TGI is 24.6 µM.

And the TGI [57]?
Its TGI is 13.2 µM.

What about the TGI [58] of the same compound?
Its TGI is 46.6 µM.
